From US20240376081A1, “POLYMORPH AND APPLICATION OF PYRIMIDINE DERIVATIVE AND PHARMACEUTICALLY ACCEPTABLE SALT THEREOF” (SHANGHAI HAIYAN PHARMACEUTICAL TECHNOLOGY CO., LTD., priority 2021, published 2024)
Where two headings read alike, the source gives them in different places.

Assays:
[1] = Differential scanning calorimetry (DSC), crystal form stability; type: physicochemical; conditions: may be transformed into free alkali crystal form I during warming up
Excerpt: As one of the embodiments, DSC plots in some embodiments of the present application were collected on a DISCOVERY DSC25 differential scanning calorimeter with the test parameters shown in Table 11.

[2] = In vivo pharmacokinetics in mice (LC/MS/MS plasma concentration); conditions: male, ICR, mouse; for clearance: read-out: Clearance CLz
Excerpt: The LC/MS/MS method was applied to determine the medicament concentration in plasma at different moments after intravenous administration and oral gavage administration of Compound X of the present application in mice, respectively, to study the pharmacokinetic behavior of Compound X of the present application in mice, and to evaluate its pharmacokinetic characteristics.
Test animals: healthy adult male ICR mice (weighing from 25 g to 40 g, 12 mice, free to drink and eat in the intravenous injection group, fasted overnight in the gavage group, and free to drink and eat 4 h after the administration of the medicament), supplied by Beijing Viton Lever Laboratory Animal Technology Co., Ltd.
Mode of administration and dosage: animals meeting the experimental requirements were selected and weighed and labeled before administration. ICR mice were administered by tail vein (2 mg/kg, 5% DMSO, pH 4.5 20% Captisol) and by gavage (10 mg/kg, 5% DMSO, pH 4.5 20% Captisol).
Blood sample collection: Prior to blood sample collection, mice were bound and approximately […] of blood was collected from the jugular vein of each administered mouse at predetermined blood collection time points (i.v. administration: Blood was collected at 9 time points: 0.083 h, 0.25 h, 0.5 h, 1 h, 2 h, 4 h, 6 h, 7.5 h, and 24 h, respectively, after administration; and gavage administration: Blood was collected at 9 time points: 0.083 h, 0.25 h, 0.5 h, 1 h, 2 h, 4 h, 6 h, 7.5 h, and 24 h, respectively, after administration). The blood was transferred to 1.5 mL tubes preloaded with K2EDTA, and the blood plasma was separated by centrifugation for 4 min (8,000 rpm, 4° C.), which was performed within 15 min after the collection. All samples were stored in a refrigerator at −20° C. until sample analysis. LC/MS/MS method was applied to determine the medicament concentration.

[3] = test system: mouse colon cancer MC38(#22)-hpd-L1; assay: In vivo potency assay in colon cancer MC38(#22)-hpd-L1 tumor bearing mice; design: species or system C57BL/6 mice; conditions: twice a day for 22 days
Method: Experimental Protocol: In this test example, tumor bearing mice subcutaneously transplanted with mouse colon cancer MC38(#22)-hpd-L1 was investigated. After administration of Compound X of the present application via the oral administration, the in vivo efficacy of Compound X on colon cancer MC38(#22)-hpd-L1 tumor bearing mice were tested.
Experimental materials: C57BL/6 mice (female); mouse colon cancer MC38(#22)-hpd-L1 cells (Shanghai Jiao Tong University cell bank), cultured in vitro in monolayer, culture conditions were using RPMI-1640 medium containing 10/% fetal bovine serum, 37° C. 5% CO2 incubator. The cells were passaged by conventional digestion treatment with trypsin-EDTA. When the cells were in the exponential growth phase with 80% to 90% saturation, the cells were harvested and counted.
Compound Preparation: The compound was weighed and added to the solvent (40% captisol in acetate buffer, pH 3.8) to prepare a 10 mg/mL sample. 75 μL of Tecentriq solution (60 mg/mL) was taken and added to 8.925 mL of phosphate buffer solution (PBS) to make a 0.5 mg/mL phosphate solution (phosphate buffer).
Experimental Operation: Cells were resuspended in the phosphate buffer at a density of 5×10^6 cells/mL. 0.1 mL of PBS (containing 5×10^5 MC38(#22)-hpd-L1 cells) was subcutaneously inoculated into the right back of each mouse. On the day of inoculation, the mice were randomized according to their body weights into groups of 10 mice each, and dosing was begun twice a day for 22 days. The animals were weighed daily and monitored for health throughout the experimental period. Tumor diameters were measured twice a week using vernier calipers.
Tumor volume V was calculated as V=0.5×a×b^2, with a and b denoting the long and short diameters of the tumor, respectively.
The tumor suppression efficacy of the compound was evaluated by relative tumor proliferation rate T/C (%). Relative tumor proliferation rate T/C (%)=Vt/Vc×100% (Vt: mean tumor volume of the treatment group; Vc: mean tumor volume of the negative control group). Vt and Vc were data taken from the same day.

[4] = Dynamic Vapor Sorption (DVS); type: physicochemical
[5] = Mixing and shaking in solvents, XRPD test; type: physicochemical
Excerpt: […] After centrifugation, the supernatant was discarded, and the solids were placed in an oven to dryness and subjected to the XRPD test.

[6] = Crystal competition experiment, XRPD; type: physicochemical; conditions: mixed forms I, IV, V, VI, VII shaken in different solvents for 24 h
Method: In order to detect the stablest crystal form of Compound X, crystalline competition experiments were carried out. 10 mg of free alkali crystal I, free alkali crystal IV, free alkali crystal form V, free alkali crystal form VI, and free alkali crystal form VII were weighed, respectively, and mixed thoroughly. 20 mg of the mixed crystal was weighed in a glass vial, to which 1 mL of solvent in Table 14 was added respectively, and the resultant was mixed and shaken at room temperature for 24 h, and centrifugated. The precipitate was taken, dried and then measured by XRPD.

[7] = Stability experiments of free alkali crystal form I, XRPD; type: physicochemical; conditions: 40° C., 75% RH, lid open; 1 week, 2 weeks, 1 month, 2 months, 4 months
Excerpt: Samples were taken at 1 week, 2 weeks, 1 month, 2 months, and 4 months for XRPD test, respectively.

A2A receptor = A2A receptor (Homo sapiens (Human), UniProt P29274); assay: Inhibitory activity on A2A receptor, cAMP assay in CHO-K1/ADORA2A/Gα15 cells (Test Example 1); type: cell-based; conditions: NECA 50 nM
Sequence of A2A receptor (P29274 whole entry): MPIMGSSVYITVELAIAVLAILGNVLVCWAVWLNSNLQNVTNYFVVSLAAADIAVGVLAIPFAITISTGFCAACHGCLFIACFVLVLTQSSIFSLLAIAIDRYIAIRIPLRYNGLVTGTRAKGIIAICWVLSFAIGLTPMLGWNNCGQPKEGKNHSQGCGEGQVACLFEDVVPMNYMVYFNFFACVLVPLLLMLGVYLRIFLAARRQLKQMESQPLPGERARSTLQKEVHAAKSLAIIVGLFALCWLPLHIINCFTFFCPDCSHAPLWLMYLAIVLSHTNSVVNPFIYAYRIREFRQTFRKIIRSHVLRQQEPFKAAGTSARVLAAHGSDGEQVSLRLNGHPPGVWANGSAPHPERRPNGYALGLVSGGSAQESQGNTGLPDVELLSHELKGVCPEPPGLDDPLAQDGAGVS
Method: (§1) CHO-K1/ADORA2A/Gα15 (GenScript, M00246) and CHO-K1/ADORA2B/Gα15 (GenScript, M00329) cells were cultured in Ham's F-12 (Gibco, 31765092) medium with medium conditions containing 10% FBS, 200 μg/mL Zeocin (bleomycin) and 100 μg/mL Hygromycin B (thaumatin B) or 10% FBS, 400 μg/mL G418 and 100 μg/mL Hygromycin B. Details of the culture conditions are described in the corresponding instructions.

A2B receptor = A2B receptor (Homo sapiens (Human), UniProt P29275); assay: Inhibitory activity on A2B receptor, cAMP assay in CHO-K1/ADORA2B/Gα15 cells (Test Example 1); type: cell-based; conditions: NECA 10 nM
Sequence of A2B receptor (P29275 whole entry): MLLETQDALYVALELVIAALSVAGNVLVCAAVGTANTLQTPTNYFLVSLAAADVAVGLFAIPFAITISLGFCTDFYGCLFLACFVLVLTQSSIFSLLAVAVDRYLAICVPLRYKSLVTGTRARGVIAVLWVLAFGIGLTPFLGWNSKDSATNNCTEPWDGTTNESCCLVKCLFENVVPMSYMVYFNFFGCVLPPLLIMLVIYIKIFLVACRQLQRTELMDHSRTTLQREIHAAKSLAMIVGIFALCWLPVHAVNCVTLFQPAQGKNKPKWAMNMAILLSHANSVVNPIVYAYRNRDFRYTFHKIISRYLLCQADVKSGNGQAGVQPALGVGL
Method: as §1

[8] = intravenous (tail vein) 2 mg/kg, read-out: Area under the curve AUC0-t
[9] = intravenous (tail vein) 2 mg/kg
[10] = po, gavage 10 mg/kg, read-out: Area under the curve AUClast

## Cc1c(C#N)cccc1-c1nc(N)c(F)c(-c2cn(Cc3cccc(C(C)(C)O)n3)nn2)n1 [free alkali crystal form IV, 3-(4-amino-5-fluoro-6-(1-((6-(2-hydroxypropan-2-yl)pyridin-2-yl)methyl)-1H-1,2,3-triazol-4-yl)pyrimidin-2-yl)-2-methylbenzonitrile]
[1]
  crystal form stability from DSC plot: sub-stable crystal form

## Cc1c(C#N)cccc1-c1cc(-c2cn(Cc3cccc(C(C)(C)O)n3)nn2)nc(N)n1 [Compound D1, reference compound]
[2]; [8]
  AUC(0-t): 1650 ng·h/mL
[2]; [9]
  clearance: 19 mL/min/kg
[2]; po, gavage 10 mg/kg
  Cmax: 5960 ng/mL
[2]; [10]
  AUC(0-t): 10300 ng·h/mL
[3]; 100 mg/kg oral
  Relative tumor proliferation rate T/C (%): 75.8%
  Tumor volume: 902 mm^3

## Cc1c(C#N)cccc1-c1nc(N)c(F)c(-c2cn(Cc3cccc(C(C)(C)O)n3)nn2)n1 [free alkali crystal form I, 3-(4-amino-5-fluoro-6-(1-((6-(2-hydroxypropan-2-yl)pyridin-2-yl)methyl)-1H-1,2,3-triazol-4-yl)pyrimidin-2-yl)-2-methylbenzonitrile]
[4]; DVS, 0% to 80% RH at 25° C.
  hygroscopicity: almost no hygroscopicity
[4]; relative humidity from 0% to 80% RH at 25° C.
  change in mass due to absorption: less than 0.2%
[5]; 50% Ethanol, 50° C., 1 day
  Crystal form after mixing and shaking: Crystal form I
[5]; 50% Ethanol, RT, 1 day
  Crystal form after mixing and shaking: Crystal form I
[5]; 50% Ethanol, RT, 7 days
  Crystal form after mixing and shaking: Crystal form I
[5]; Ethanol, 50° C., 1 day
  Crystal form after mixing and shaking: Crystal form I
[5]; Ethanol, RT, 1 day
  Crystal form after mixing and shaking: Crystal form I
[5]; Ethanol, RT, 7 days
  Crystal form after mixing and shaking: Crystal form I
[5]; Ethyl acetate, 50° C., 1 day
  Crystal form after mixing and shaking: Crystal form I
[5]; Ethyl acetate, RT, 1 day
  Crystal form after mixing and shaking: Crystal form I
[5]; Ethyl acetate, RT, 7 days
  Crystal form after mixing and shaking: Crystal form I
[5]; Isopropanol, 50° C., 1 day
  Crystal form after mixing and shaking: Crystal form I
[5]; Isopropanol, RT, 1 day
  Crystal form after mixing and shaking: Crystal form I
[5]; Isopropanol, RT, 7 days
  Crystal form after mixing and shaking: Crystal form I
[5]; Methyl tert-butyl ether, 50° C., 1 day
  Crystal form after mixing and shaking: Crystal form I
[5]; Methyl tert-butyl ether, RT, 1 day
  Crystal form after mixing and shaking: Crystal form I
[5]; Methyl tert-butyl ether, RT, 7 days
  Crystal form after mixing and shaking: Crystal form I
[5]; Water, 50° C., 1 day
  Crystal form after mixing and shaking: Crystal form I
[5]; Water, RT, 1 day
  Crystal form after mixing and shaking: Crystal form I
[5]; Water, RT, 7 days
  Crystal form after mixing and shaking: Crystal form I
[5]; any of the seven solvents shown
  change of crystal form after mixing and shaking: did not change
[5]; n-Heptane, 50° C., 1 day
  Crystal form after mixing and shaking: Crystal form I
[5]; n-Heptane, RT, 1 day
  Crystal form after mixing and shaking: Crystal form I
[5]; n-Heptane, RT, 7 days
  Crystal form after mixing and shaking: Crystal form I
[6]
  stablest crystal form determined by competition: stable crystal form
[7]
  physical stability (XRPD): physically stable

## Cc1c(C#N)cccc1-c1nc(N)c(F)c(-c2cn(Cc3cccc(C(C)(C)O)n3)nn2)n1 [Compound X, 3-(4-amino-5-fluoro-6-(1-((6-(2-hydroxypropan-2-yl)pyridin-2-yl)methyl)-1H-1,2,3-triazol-4-yl)pyrimidin-2-yl)-2-methylbenzonitrile]
A2A receptor
  IC50: 0.001 mM
A2B receptor
  IC50: 0.003 mM
[2]; [8]
  AUC(0-t): 2250 ng·h/mL
[2]; [9]
  clearance: 14.7 mL/min/kg
[2]; po, gavage 10 mg/kg
  Cmax: 8730 ng/mL
[2]; [10]
  AUC(0-t): 10400 ng·h/mL
[3]; 10 mg/kg oral
  Relative tumor proliferation rate T/C (%): 75.5%
  Tumor volume: 899 mm^3
[3]; 30 mg/kg oral
  Relative tumor proliferation rate T/C (%): 34.0%
  Tumor volume: 405 mm^3
[3]; 100 mg/kg oral
  Relative tumor proliferation rate T/C (%): 24.0%
  Tumor volume: 286 mm^3
